Laboratory results taken from ChEMBL document CHEMBL3044672, “N9- and N7-(Chloromethyl Phenymethyl)Chloropurine Derivatives from , '-Dichloroxylenes: Synthesis and Anticancer Activity” (2005).

How the values were obtained:
Format in all cases: functional
[1] = system: LOX IMVI; test: Cytotoxicity against Homo sapiens (human) LOXIMVI cells after 48 hr by sulforhodamine B assay
[2] = system: PC-3; test: Cytotoxicity against Homo sapiens (human) PC3 cells after 48 hr by sulforhodamine B assay; conditions: PC-3, 48 h
[3] = system: SF-268; test: Cytotoxicity against Homo sapiens (human) SF268 cells after 48 hr by sulforhodamine B assay; conditions: SF-268, 48 h; for CC50: read-out: LC50 (the source's name)
[4] = system: U-251; test: Cytotoxicity against Homo sapiens (human) U251 cells after 48 hr by sulforhodamine B assay; conditions: U-251, 48 h
[5] = system: M14; test: Cytotoxicity against Homo sapiens (human) M14 cells after 48 hr by sulforhodamine B assay; conditions: M14, 48 h
[6] = system: BT-549; test: Cytotoxicity against Homo sapiens (human) BT549 cells after 48 hr by sulforhodamine B assay; conditions: BT-549, 48 h
[7] = system: OVCAR-3; test: Cytotoxicity against Homo sapiens (human) OVCAR3 cells after 48 hr by sulforhodamine B assay; conditions: OVCAR-3, 48 h
[8] = system: OVCAR-5; test: Cytotoxicity against Homo sapiens (human) OVCAR5 cells after 48 hr by sulforhodamine B assay; conditions: OVCAR-5, 48 h; for CC50: read-out: LC50 (the source's name)
[9] = system: SK-MEL-28; test: Cytotoxicity against Homo sapiens (human) SK-MEL-28 cells after 48 hr by sulforhodamine B assay; conditions: SK-MEL-28, 48 h
[10] = system: NCI-H322M; test: Cytotoxicity against Homo sapiens (human) NCI-H322M cells after 48 hr by sulforhodamine B assay; conditions: for CC50: read-out: LC50 (the source's name)
[11] = system: CAKI-1; test: Cytotoxicity against Homo sapiens (human) Caki1 cells after 48 hr by sulforhodamine B assay; conditions: CAKI-1, 48 h; for CC50: read-out: LC50 (the source's name)
[12] = system: HCC 2998; test: Cytotoxicity against Homo sapiens (human) HCC2998 cells after 48 hr by sulforhodamine B assay; conditions: HCC 2998, 48 h; for CC50: read-out: LC50 (the source's name)
[13] = system: NCI-H23; test: Cytotoxicity against Homo sapiens (human) NCI-H23 cells after 48 hr by sulforhodamine B assay; conditions: NCI-H23, 48 h; for CC50: read-out: LC50 (the source's name)
[14] = system: CCRF-CEM; test: Cytotoxicity against Homo sapiens (human) CCRF-CEM cells after 48 hr by sulforhodamine B assay; conditions: for CC50: read-out: LC50 (the source's name)
[15] = system: SK-MEL-2; test: Cytotoxicity against Homo sapiens (human) SK-MEL-2 cells after 48 hr by sulforhodamine B assay; conditions: SK-MEL-2, 48 h
[16] = system: MOLT-4; test: Cytotoxicity against Homo sapiens (human) MOLT4 cells after 48 hr by sulforhodamine B assay; conditions: MOLT-4, 48 h; for CC50: read-out: LC50 (the source's name)
[17] = system: IGROV-1; test: Cytotoxicity against Homo sapiens (human) IGROV1 cells after 48 hr by sulforhodamine B assay; conditions: IGROV-1, 48 h
[18] = system: EKVX; test: Cytotoxicity against Homo sapiens (human) EKVX cells after 48 hr by sulforhodamine B assay; conditions: for CC50: read-out: LC50 (the source's name)
[19] = system: SF-295; test: Cytotoxicity against Homo sapiens (human) SF295 cells after 48 hr by sulforhodamine B assay; conditions: SF-295, 48 h; for CC50: read-out: LC50 (the source's name)
[20] = system: UO-31; test: Cytotoxicity against Homo sapiens (human) UO31 cells after 48 hr by sulforhodamine B assay; conditions: UO-31, 48 h
[21] = system: HOP-62; test: Cytotoxicity against Homo sapiens (human) HOP62 cells after 48 hr by sulforhodamine B assay; conditions: HOP-62, 48 h; for CC50: read-out: LC50 (the source's name)
[22] = system: MCF7; test: Cytotoxicity against Homo sapiens (human) MCF7 cells assessed as cell growth at 10^-4 M after 48 hr by Alamar blue assay; conditions: MCF7, 48 h, read-out: Activity
[23] = system: NCI-H460; test: Cytotoxicity against Homo sapiens (human) NCI-H460 cells after 48 hr by sulforhodamine B assay; conditions: NCI-H460, 48 h; for CC50: read-out: LC50 (the source's name)
[24] = system: SK-OV-3; test: Cytotoxicity against Homo sapiens (human) SKOV3 cells after 48 hr by sulforhodamine B assay; conditions: SK-OV-3, 48 h
[25] = system: RXF 393; test: Cytotoxicity against Homo sapiens (human) RXF393 cells after 48 hr by sulforhodamine B assay; conditions: RXF 393, 48 h; for CC50: read-out: LC50 (the source's name)
[26] = system: DU-145; test: Cytotoxicity against Homo sapiens (human) DU145 cells after 48 hr by sulforhodamine B assay; conditions: DU-145, 48 h
[27] = system: MCF7; test: Cytotoxicity against Homo sapiens (human) MCF7 cells after 48 hr by sulforhodamine B assay; conditions: MCF7, 48 h
[28] = Cytotoxicity against Homo sapiens (human) NCI-ADR-RES cells after 48 hr by sulforhodamine B assay
[29] = system: SK-MEL-5; test: Cytotoxicity against Homo sapiens (human) SK-MEL-5 cells after 48 hr by sulforhodamine B assay; conditions: SK-MEL-5, 48 h
[30] = system: OVCAR-8; test: Cytotoxicity against Homo sapiens (human) OVCAR8 cells after 48 hr by sulforhodamine B assay; conditions: OVCAR-8, 48 h
[31] = system: HT-29; test: Cytotoxicity against Homo sapiens (human) HT-29 cells after 48 hr by sulforhodamine B assay; conditions: HT-29, 48 h
[32] = system: T47D; test: Cytotoxicity against Homo sapiens (human) T47D cells after 48 hr by sulforhodamine B assay

ClCc1ccc(Cn2cnc3c(Cl)ncnc32)cc1
GI50 [1]: 1 µM | LC50 [1]: 13.5 µM | TGI [1]: 3.46 µM | GI50 [2]: 4.78 µM | LC50 (concentration causing 50% cell kill) [2]: > 100 µM | TGI [2]: 72.4 µM | GI50 [3]: 0.64 µM | TGI [3]: 2.88 µM | CC50 [3]: 9.33 µM | GI50 [4]: 1.25 µM | LC50 (concentration killing 50% of cells) [4]: 7.41 µM | TGI [4]: 3.01 µM | GI50 [5]: 1.28 µM | LC50 [5]: 9.12 µM | TGI [5]: 3.46 µM | GI50 [6]: 5.62 µM | LC50 (50% lethal concentration) [6]: 57.5 µM | TGI [6]: 21.4 µM | GI50 [7]: 1.38 µM | LC50 [7]: 8.91 µM | TGI [7]: 3.54 µM | GI50 [8]: 2.95 µM | TGI [8]: 9.23 µM | CC50 [8]: 34.7 µM | GI50 [9]: 7.94 µM | LC50 (concentration killing 50% of cells) [9]: > 100 µM | TGI [9]: 30.9 µM | GI50 [10]: 1.82 µM | TGI [10]: 4.16 µM | CC50 [10]: 9.33 µM | GI50 [11]: 0.26 µM | TGI [11]: 0.64 µM | CC50 [11]: 2.39 µM | GI50 [12]: 0.66 µM | TGI [12]: 2.04 µM | CC50 [12]: 5.12 µM | GI50 [13]: 0.66 µM | TGI [13]: 2.45 µM | CC50 [13]: 7.76 µM | GI50 [14]: 0.51 µM | TGI [14]: > 100 µM | CC50 [14]: > 100 µM | GI50 [15]: 4.36 µM | LC50 (concentration killing 50% of cells) [15]: > 100 µM | TGI [15]: > 100 µM | GI50 [16]: 4.78 µM | TGI [16]: > 100 µM | CC50 [16]: > 100 µM | GI50 [17]: 3.16 µM | LC50 [17]: > 100 µM | TGI [17]: 25.1 µM | GI50 [18]: 2.45 µM | TGI [18]: 6.92 µM | CC50 [18]: 38.9 µM | GI50 [19]: 0.27 µM | TGI [19]: 3.46 µM | CC50 [19]: 24 µM | GI50 [20]: 2.08 µM | LC50 (concentration causing 50% net cell kill) [20]: > 100 µM | TGI [20]: 4.57 µM | GI50 [21]: 1.94 µM | TGI [21]: 6.76 µM | CC50 [21]: 32.4 µM | growth at 100 µM [22]: 7% | GI50 [23]: 0.05 µM | TGI [23]: 1.82 µM | CC50 [23]: 26.9 µM | GI50 [24]: 3.38 µM | LC50 [24]: 91.2 µM | TGI [24]: 13.8 µM | GI50 [25]: 2.3 µM | TGI [25]: 5.49 µM | CC50 [25]: > 100 µM | GI50 [26]: 1.31 µM | LC50 [26]: 36.3 µM | TGI [26]: 11.8 µM | GI50 [27]: 0.41 µM | LC50 (concentration killing 50% of cells) [27]: > 100 µM | TGI [27]: 77.6 µM | GI50 [28]: 1.51 µM | LC50 (concentration killing 50% of cells) [28]: 38.9 µM | TGI [28]: 5.49 µM | GI50 [29]: 3.23 µM | LC50 [29]: 74.1 µM | TGI [29]: 20.9 µM | GI50 [30]: 3.02 µM | LC50 (concentration killing 50% of cells) [30]: 64.6 µM | TGI [30]: 15.1 µM

ClCc1ccccc1Cn1cnc2ncnc(Cl)c21
GI50 [1]: 1.34 µM | LC50 [1]: 7.07 µM | TGI [1]: 3.09 µM | GI50 [2]: 4.46 µM | LC50 (concentration causing 50% cell kill) [2]: 74.1 µM | TGI [2]: 19.1 µM | GI50 [3]: 4.78 µM | TGI [3]: 24.5 µM | CC50 [3]: > 100 µM | GI50 [4]: 1.9 µM | LC50 (concentration killing 50% of cells) [4]: 10.2 µM | TGI [4]: 4.36 µM | GI50 [5]: 1.9 µM | LC50 [5]: 27.5 µM | TGI [5]: 5.12 µM | GI50 [6]: 2.45 µM | LC50 (50% lethal concentration) [6]: 25.1 µM | TGI [6]: 6.02 µM | GI50 [7]: 2.04 µM | LC50 [7]: 8.31 µM | TGI [7]: 4.16 µM | GI50 [8]: 2.81 µM | TGI [8]: 7.24 µM | CC50 [8]: 26.9 µM | GI50 [9]: 4.46 µM | LC50 (concentration killing 50% of cells) [9]: 79.4 µM | TGI [9]: 18.6 µM | GI50 [10]: 4.67 µM | TGI [10]: 15.8 µM | CC50 [10]: 40.7 µM | GI50 [11]: 2.34 µM | TGI [11]: 4.16 µM | CC50 [11]: 7.41 µM | GI50 [12]: 2.23 µM | TGI [12]: 4.26 µM | CC50 [12]: 7.94 µM | GI50 [13]: 5.01 µM | TGI [13]: 17.4 µM | CC50 [13]: 49 µM | GI50 [14]: 1.44 µM | TGI [14]: 3.54 µM | CC50 [14]: 8.7 µM | GI50 [15]: 4.16 µM | LC50 (concentration killing 50% of cells) [15]: > 100 µM | TGI [15]: 19.5 µM | GI50 [16]: 1.65 µM | TGI [16]: 4.26 µM | CC50 [16]: 16.6 µM | GI50 [17]: 4.26 µM | LC50 [17]: > 100 µM | TGI [17]: 22.9 µM | GI50 [18]: 5.37 µM | TGI [18]: 17.8 µM | CC50 [18]: 45.7 µM | GI50 [19]: 7.94 µM | TGI [19]: 20.4 µM | CC50 [19]: 46.8 µM | GI50 [20]: 3.23 µM | LC50 (concentration causing 50% net cell kill) [20]: 77.6 µM | TGI [20]: 10.7 µM | GI50 [21]: 11.2 µM | TGI [21]: 28.8 µM | CC50 [21]: 75.9 µM | GI50 [31]: 3.89 µM | TGI [31]: > 100 µM | CC50 ([31]; read-out: LC50 (the source's name)): > 100 µM | growth at 100 µM [22]: 1% | GI50 [23]: 13.5 µM | TGI [23]: 60.2 µM | CC50 [23]: > 100 µM | GI50 [24]: 7.58 µM | LC50 [24]: 85.1 µM | TGI [24]: 26.9 µM | GI50 [25]: 1.65 µM | TGI [25]: 6.54 µM | CC50 [25]: > 100 µM | GI50 [26]: 2.95 µM | LC50 [26]: 33.1 µM | TGI [26]: 10.2 µM | GI50 [27]: 3.63 µM | LC50 (concentration killing 50% of cells) [27]: > 100 µM | TGI [27]: > 100 µM | GI50 [28]: 2.08 µM | LC50 (concentration killing 50% of cells) [28]: 6.54 µM | TGI [28]: 4.46 µM | GI50 [29]: 1.38 µM | LC50 [29]: 15.8 µM | TGI [29]: 4.07 µM | GI50 [30]: 2.75 µM | LC50 (concentration killing 50% of cells) [30]: 58.9 µM | TGI [30]: 8.7 µM | GI50 [32]: 1.99 µM | LC50 [32]: 4.26 µM | TGI [32]: 4.26 µM
